Experimental data from patent US20010041365A1, “Methods for monitoring alcohol consumption” (priority 2000, published 2001).
Like-named read-outs stand apart in the source and are kept apart here. Marks after values point to notes of the source that are not given here.

What was measured:
[1] = Serum FAEE and blood ethanol over time in men and women after alcohol consumption over 90 minutes (Example 1); assay type: in vivo, human
Description: Seven volunteers (four men and […]) were given measured amounts of 100-proof vodka mixed with fruit juice in a 1:3 ratio which was weight-adjusted to increase blood ethanol levels to approximately 120-147 mg/dL. The beverage was divided in 9 equal aliquots which the subjects drank over a 90 minute period, 1 aliquot every 10 minutes. This alcohol intake represented consumption to the legal limit of intoxication. Once the drinking commenced, blood was collected from a catheter every 15 min for the first 2.5 h. Between 2.5 and 4.0 h, samples were collected every 30 min; and from 4 to 8 h, they were collected every 60 min. A final blood sample was also collected 24 h after the ethanol ingestion commenced. Blood was collected from a peripheral venous catheter into vacuum tubes without anti-coagulant (for serum FAEE) and into tubes with the anti-coagulant sodium citrate (for plasma ethanol). (Soderberg, et al., Clinical Chemistry, 45(12):2183-2190, 1999; Doyle, K. M. et al., JAMA, 276:1152-1156, 1996)
All samples were extracted with acetone/hexane (2/8, v/v) and dried under nitrogen vapors to a volume of approximately 300 μL. […] FAEEs were then quantitated by gas chromatography-mass spectrometry (GC-MS) using a Hewlett-Packard 5890 Series II gas chromatograph equipped with a Supelcowax SP-2330 capillary column coupled to an HP-5971 mass spectrometer.

[2] = Post-mortem liver and adipose FAEE as markers of pre-mortem ethanol intake (Example 9); assay type: in vivo; details: autopsy tissue
Description: This study was approved by both the Massachusetts Medical Examiner Office Committee and the Massachusetts General Hospital Pathology Quality Assurance Committee. Twenty-four sets of samples were collected at the Massachusetts State Medical Examiner's Office and 7 sets of samples were obtained from the Pathology Department of Massachusetts General Hospital. Medical history, history of ethanol ingestion (obtained from the organ bank, treating physician, health insurance records, and/or relatives), and the blood ethanol level at autopsy were obtained in each case. Only cases with available blood ethanol levels were included in this study. Individuals who had detectable blood ethanol levels at the time of autopsy, with or without a history of ethanol abuse, were grouped as “positive for ethanol.” Individuals categorized in the chronic alcoholic or social drinker groups met all of the following criteria a) no known alcohol intake immediately prior to death; b) undetectable blood ethanol level in blood samples collected at autopsy; and c) no suspicious incident at the time of death. In addition, chronic alcoholics were diagnosed according to the Diagnostic and Statistical Manual-IV.
Samples of liver and adipose tissue were collected at autopsy from randomly selected cases and FAEE were isolated and quantitated from these organs as mass per gram wet weight. […]

[3] = Distribution of plasma FAEE species in chronic alcoholics vs. acutely intoxicated individuals (Example 6); assay type: in vivo, human; details: for proportion of total FAEE, acute drinkers relative to chronic drinkers: plasma
Description: Plasma was obtained from chronic alcoholics (i.e. chronic drinkers) at the time of admission to a detoxification program. Acutely intoxicated control subjects used for comparison in this study were normal, healthy volunteers who also participated in the study concerning gender and alcoholic beverage type (see above).

[4] = Plasma FAEE levels in acute (binge) and chronic drinkers at peak ethanol levels and 24 hours after peak (Example 7); assay type: in vivo, human; details: for average proportion of total FAEE which is ethyl oleate: peak or near peak ethanol levels; for concentration at 24 h: human, plasma, oral; for Proportion of Ethyl Oleate in Binge Drinkers (Mean +/− SEM) / Proportion of Ethyl Oleate in Binge Drinkers (range) / Proportion of Ethyl Oleate in Chronic Drinkers (Mean +/− SEM) / Proportion of Ethyl Oleate in Chronic Drinkers (range): of total FAEE in plasma; for mean difference between proportion of total FAEE which is ethyl stearate and proportion which is ethyl oleate: 24 hours after alcohol consumption
Description: Thus, as an example, gas chromatography either alone or in combination with mass spectrometry and/or an initial step of solid phase extraction can be used to determine total and/or individual fatty acid ethyl ester concentrations. […] If the sample has been previously harvested and frozen, it is thawed out and a 1 mL aliquot is removed for analysis. […] In order to determine and quantitate FAEE content, an internal standard of 1 nmol of ethyl heptadecanoate (ethyl 17:0) is added to each sample. Samples are extracted with acetone hexane (2:8, by volume) and dried under nitrogen vapors to a volume of approximately 300 μL. FAEEs are isolated by solid phase extraction using Bond Elut-LRC aminopropyl columns. Columns are pre-washed with dichloromethane followed by hexane; the sample is then applied to the column and eluted by successive washes of hexane and dichloromethane. Combined eluates are concentrated, and FAEEs are then quantified by GC-MS using a Hewlett Packard 5890 Series II gas chromatograph equipped with a Supelcowax SP-2330 capillary column coupled to an HP-5971 mass spectrometer. The injector and detector are maintained at 260° C. and 280° C., respectively. The oven program is initially maintained at 130° C. for 2 minutes then ramped to 160° C. at 5° C./min, ramped again at 2° C./min to 180° C., held for 7 min, finally, ramped to 230° C. at 15° C/min and maintained for 2 min. Carrier gas flow rate is maintained at a constant 0.8 mL/min throughout. Single-ion monitoring is performed, quantifying appropriate base ions for individual FAEE species [i.e., ions m/z 67, 88, and 101 for ethyl palmitate (E16:0), ethyl heptadecanoate (E17:0), ethyl stearate (E18:0), ethyl oleate (E18:1), and ethyl linoleate (E18.2); and ions m/z 79 and 91 for ethyl arachidonate (E20:4), ethyl eicosapentaenoate (E20:5), and ethyl docosahexaenoate (E22:6)]. FAEEs are quantitated by interpolation of the slope generated from individually prepared calibration curves comparing areas of varying concentrations of E16:0-E22:6 to fixed concentrations of the internal standard (E17:0). Mass relationships are obtained for each FAEE using its individual calibration curve. Total FAEE mass is determined by the addition of masses of individual FAEEs (E16:0-E22:6).
A subset of human subjects presenting at the Massachusetts General Hospital with apparent alcohol related symptoms were entered into this study. Blood was collected from such subjects immediately at the time of presentation, which was assumed to be at peak or near peak ethanol levels, and again 24 hours after presentation. A medical history taken from each subject was used to categorize the subject as a chronic alcoholic or an acute (i.e., binge) drinker. Blood samples were processed, as described herein, to determine the absolute levels of ethyl palmitate, ethyl oleate and total FAEE in plasma.

[5] = binge drinkers, 24 hours after peak ethanol levels
[6] = a day after peak or near peak alcohol levels

SMILES: CCO [ethanol]
- time at which blood ethanol decreased to initial levels ([1]; after the beginning of alcohol intake): about 500 minutes
- maximum level of blood ethanol ([1]; both men and women): approximately 130 mg/dL

SMILES: CCCCC/C=C\C/C=C\C/C=C\C/C=C\CCCC(=O)OCC [ethyl arachidonate]
- level in liver and adipose, individuals with detectable blood ethanol at autopsy compared with chronic alcoholics and social drinkers [2]: markedly higher

SMILES: CCCCCCCC/C=C\CCCCCCCC(=O)OCC [ethyl oleate]
- percent of total FAEE in plasma ([3]; acute drinkers): about 30%
- percent of total FAEE in plasma ([3]; chronic drinkers, at admission to detoxification program): ~75%
- Concentration of Ethyl Oleate in Binge Drinkers (Mean +/− SEM) ([4]; 24 hours after peak): (14 ± 8) pmol/mL
- Concentration of Ethyl Oleate in Chronic Drinkers (Mean +/− SEM) ([4]; 24 hours after peak): (2714 ± 1821) pmol/mL
- proportion of total FAEE which is ethyl oleate [4, 5]: 10%
- average proportion of total FAEE which is ethyl oleate ([4]; binge drinkers): 32%
- proportion of total FAEE which is ethyl oleate ([4]; chronic drinkers, 24 hours after peak ethanol levels): 71%
- average proportion of total FAEE which is ethyl oleate ([4]; chronic drinkers): 28%
- concentration at 24 h ([4]; 24 hours after peak ethanol levels, read-out: concentration of ethyl oleate in the majority of binge drinkers (9 out of 13)): < 1 nM
- concentration at 24 h ([4]; 24 hours after peak, read-out: Concentration of Ethyl Oleate in Binge Drinkers (range)): 0 to 80 nM
- concentration at 24 h ([4]; 24 hours after peak, read-out: Concentration of Ethyl Oleate in Chronic Drinkers (range)): 120 to 28100 nM
- Proportion of Ethyl Oleate in Binge Drinkers (Mean +/− SEM) ([4]; 24 hours after peak): (0.09 +/− 0.04)
- Proportion of Ethyl Oleate in Binge Drinkers (range) ([4]; 24 hours after peak): 0.01-0.46
- Proportion of Ethyl Oleate in Chronic Drinkers (Mean +/− SEM) ([4]; 24 hours after peak): (0.71 +/− 0.02)
- Proportion of Ethyl Oleate in Chronic Drinkers (range) ([4]; 24 hours after peak): 0.58-0.82
- Proportion of Ethyl Oleate in Binge Drinkers (Mean +/− SEM) ([4]; peak or near peak ethanol): (0.28 +/− 0.02)
- Proportion of Ethyl Oleate in Binge Drinkers (range) ([4]; peak or near peak ethanol): 0.01-0.44
- Proportion of Ethyl Oleate in Chronic Drinkers (Mean +/− SEM) ([4]; peak or near peak ethanol): (0.32 +/− 0.02)
- Proportion of Ethyl Oleate in Chronic Drinkers (range) ([4]; peak or near peak ethanol): 0.16-0.46
- Concentration of Ethyl Oleate in Binge Drinkers (Mean +/− SEM) ([4]; peak or near peak ethanol): (557 ± 82) pmol/mL
- Concentration of Ethyl Oleate in Binge Drinkers (range) ([4]; peak or near peak ethanol): 184 to 1049 nM
- Concentration of Ethyl Oleate in Chronic Drinkers (Mean +/− SEM) ([4]; peak or near peak ethanol): (2817 +/− 780) pmol/mL
- Concentration of Ethyl Oleate in Chronic Drinkers (range) ([4]; peak or near peak ethanol): 96 to 16011 nM

SMILES: CCCCCCCCCCCCCCCC(=O)OCC [ethyl palmitate]
- proportion of total FAEE, acute drinkers relative to chronic drinkers [3]: almost three times higher
- Ethyl Palmitate to Ethyl Oleate Ratio in Chronic Drinkers (Mean +/− SEM) ([4]; 24 hours after peak): (0.41 +/− 0.03)
- Ethyl Palmitate to Ethyl Oleate Ratio in Chronic Drinkers (range) ([4]; 24 hours after peak): 0.22-0.73
- Ethyl Palmitate to Ethyl Oleate Ratio in Binge Drinkers (Mean +/− SEM) ([4]; 24 hours after peak, mean calculated using a value of 100 where the ratio was ∞): (69.8 +/− 13.1)*
- P/O ratio of all chronic drinkers [4, 6]: less than 1.0
- P/O ratio of most binge drinkers [4, 6]: ∞
- mean proportion of total FAEE which is ethyl palmitate [4, 5]: 80%
- mean proportion of total FAEE which is ethyl palmitate ([4]; binge drinkers, peak or near peak alcohol levels): 49%
- mean proportion of total FAEE which is ethyl palmitate ([4]; chronic alcoholics, 24 hours after peak ethanol levels): 29%
- mean proportion of total FAEE which is ethyl palmitate ([4]; chronic alcoholics, peak or near peak alcohol levels): 38%
- Ethyl Palmitate to Ethyl Oleate Ratio in Binge Drinkers (Mean +/− SEM) ([4]; peak or near peak): (6.28 +/− 5.0)
- Ethyl Palmitate to Ethyl Oleate Ratio in Binge Drinkers (range) ([4]; peak or near peak): 0.96-70.65
- Ethyl Palmitate to Ethyl Oleate Ratio in Chronic Drinkers (Mean +/− SEM) ([4]; peak or near peak): (1.27 +/− 0.12)
- Ethyl Palmitate to Ethyl Oleate Ratio in Chronic Drinkers (range) ([4]; peak or near peak): 0.53-3.49

SMILES: CCCCCCCCCCCCCCCCCC(=O)OCC [ethyl stearate]
- proportion of total FAEE, acute drinkers relative to chronic drinkers [3]: ~15 fold
- mean difference between proportion of total FAEE which is ethyl stearate and proportion which is ethyl oleate ([4]; binge drinkers): about 10%
- mean difference between proportion of total FAEE which is ethyl stearate and proportion which is ethyl oleate ([4]; chronic alcoholics): roughly 70%
